Experimental data: US20110086759A1, “CHEMICAL COMPOUNDS” (SYNGENTA CROP PROTECTION, INC., priority 2007, published 2011)

How the values were obtained:
[1] = system: Alopecurus myosuroides (ALOMY); assay: Pre-emergence biological efficacy, glasshouse pot test; format: in vivo; details: 312 h
How it was run: (§1)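 Test compound, formulated in acetone/water (50:50) containing 0.5% Tween 20 and diluted into an aqueous spray, was applied at 1000 or 250 g/ha to pots sown one day earlier. Injury was rated after 13 days, 100 meaning total damage.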

Setaria faberi (SETFA) [2] = assay: as above; format: in vivo; details: 312 h
How it was run: as §1

Solanum nigrum (SOLNI) [3] = assay: as above; format: in vivo; details: 312 h
How it was run: as §1

[4] = system: Amaranthus retoflexus (AMARE); assay: as above; format: in vivo; details: Amaranthus retroflexus, 312 h
How it was run: as §1

[5] = system: Ipomea hederaceae (IPOHE); assay: as above; format: in vivo; details: Ipomoea hederacea, 312 h
How it was run: as §1

[6] = system: Echinochloa crus-galli (ECHCG); assay: as above; format: in vivo; details: 312 h
How it was run: as §1

[7] = system: Alopecurus myosuroides (ALOMY); assay: Post-emergence biological efficacy, glasshouse pot test; format: in vivo; details: 312 h
How it was run: (§2)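 Plants were sown in standard soil and grown 8 days in a glasshouse (24/16° C. day/night, 14 hours light, 65% humidity), then sprayed post-emergence at 1000 or 250 g/ha from acetone/water (50:50) with 0.5% Tween 20. Damage was scored visually after 13 days (0 = none, 100 = total).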

Setaria faberi (SETFA) [8] = assay: as above; format: in vivo; details: 312 h
How it was run: as §2

Solanum nigrum (SOLNI) [9] = assay: as above; format: in vivo; details: 312 h
How it was run: as §2

[10] = system: Amaranthus retoflexus (AMARE); assay: as above; format: in vivo; details: Amaranthus retroflexus, 312 h
How it was run: as §2

[11] = system: Ipomea hederaceae (IPOHE); assay: as above; format: in vivo; details: Ipomoea hederacea, 312 h
How it was run: as §2

[12] = system: Echinochloa crus-galli (ECHCG); assay: as above; format: in vivo; details: 312 h
How it was run: as §2

[13] = pre-emergence, rate 1,000 g/ha, evaluated after 13 days (100=total damage to plant; 0=no damage), read-out: Percentage damage caused to weed species, ALOMY
[14] = pre-emergence, rate 1,000 g/ha, evaluated after 13 days (100=total damage to plant; 0=no damage), read-out: Percentage damage caused to weed species, SETFA
[15] = pre-emergence, rate 1,000 g/ha, evaluated after 13 days (100=total damage to plant; 0=no damage), read-out: Percentage damage caused to weed species, SOLNI
[16] = pre-emergence, rate 1,000 g/ha, evaluated after 13 days (100=total damage to plant; 0=no damage), read-out: Percentage damage caused to weed species, AMARE
[17] = pre-emergence, rate 1,000 g/ha, evaluated after 13 days (100=total damage to plant; 0=no damage), read-out: Percentage damage caused to weed species, IPOHE
[18] = pre-emergence, rate 1,000 g/ha, evaluated after 13 days (100=total damage to plant; 0=no damage), read-out: Percentage damage caused to weed species, ECHCG
[19] = Rate 1,000 g/ha, post-emergence spray, evaluated after 13 days (100=total damage to plant; 0=no damage to plant), read-out: Percentage damage caused to weed species, post-emergence, ALOMY
[20] = Rate 1,000 g/ha, post-emergence spray, evaluated after 13 days (100=total damage to plant; 0=no damage to plant), read-out: Percentage damage caused to weed species, post-emergence, SETFA
[21] = Rate 1,000 g/ha, post-emergence spray, evaluated after 13 days (100=total damage to plant; 0=no damage to plant), read-out: Percentage damage caused to weed species, post-emergence, SOLNI
[22] = Rate 1,000 g/ha, post-emergence spray, evaluated after 13 days (100=total damage to plant; 0=no damage to plant), read-out: Percentage damage caused to weed species, post-emergence, AMARE
[23] = Rate 1,000 g/ha, post-emergence spray, evaluated after 13 days (100=total damage to plant; 0=no damage to plant), read-out: Percentage damage caused to weed species, post-emergence, IPOHE
[24] = Rate 1,000 g/ha, post-emergence spray, evaluated after 13 days (100=total damage to plant; 0=no damage to plant), read-out: Percentage damage caused to weed species, post-emergence, ECHCG

| melting point | SMILES | pest or weed control at 1000 g/ha [1, 13] | pest or weed control at 1000 g/ha (Setaria faberi (SETFA) [2]; [14]) | pest or weed control at 1000 g/ha (Solanum nigrum (SOLNI) [3]; [15]) | pest or weed control at 1000 g/ha [4, 16] | pest or weed control at 1000 g/ha [5, 17] | pest or weed control at 1000 g/ha [6, 18] | pest or weed control at 1000 g/ha [7, 19] | pest or weed control at 1000 g/ha (Setaria faberi (SETFA) [8]; [20]) | pest or weed control at 1000 g/ha (Solanum nigrum (SOLNI) [9]; [21]) | pest or weed control at 1000 g/ha [10, 22] | pest or weed control at 1000 g/ha [11, 23] | pest or weed control at 1000 g/ha [12, 24] | also measured |
| --- | --- | --- | --- | --- | --- | --- | --- | --- | --- | --- | --- | --- | --- | --- |
| 150 to 152 °C | O=C(O)c1nc(C2CC2)nc(NCc2ccco2)c1Cl [Compound 1-125, 5-chloro-2-cyclopropyl-4-(furan-2-ylmethylamino)-pyrimidine-6-carboxylic acid] |  |  |  |  |  |  |  |  |  |  |  |  | pest or weed control at 1000 g/ha ([1]; pre-emergence, 1,000 g/ha, evaluated after 13 days (100=total damage; 0=no damage), read-out: Percentage damage ALOMY): 60%; pest or weed control at 1000 g/ha (Setaria faberi (SETFA) [2]; pre-emergence, 1,000 g/ha, evaluated after 13 days (100=total damage; 0=no damage), read-out: Percentage damage SETFA): 70%; pest or weed control at 1000 g/ha (Solanum nigrum (SOLNI) [3]; pre-emergence, 1,000 g/ha, evaluated after 13 days (100=total damage; 0=no damage), read-out: Percentage damage SOLNI): 100%; pest or weed control at 1000 g/ha ([4]; pre-emergence, 1,000 g/ha, evaluated after 13 days (100=total damage; 0=no damage), read-out: Percentage damage AMARE): 100%; pest or weed control at 1000 g/ha ([5]; pre-emergence, 1,000 g/ha, evaluated after 13 days (100=total damage; 0=no damage), read-out: Percentage damage IPOHE): 100%; pest or weed control at 1000 g/ha ([6]; pre-emergence, 1,000 g/ha, evaluated after 13 days (100=total damage; 0=no damage), read-out: Percentage damage ECHCG): 80%; pest or weed control at 1000 g/ha ([7]; post-emergence, 1,000 g/ha, evaluated after 13 days (100=total damage; 0=no damage), read-out: Percentage damage caused to weed species, ALOMY): 60%; pest or weed control at 1000 g/ha (Setaria faberi (SETFA) [8]; post-emergence, 1,000 g/ha, evaluated after 13 days (100=total damage; 0=no damage), read-out: Percentage damage caused to weed species, SETFA): 90%; pest or weed control at 1000 g/ha (Solanum nigrum (SOLNI) [9]; post-emergence, 1,000 g/ha, evaluated after 13 days (100=total damage; 0=no damage), read-out: Percentage damage caused to weed species, SOLNI): 100%; pest or weed control at 1000 g/ha ([10]; post-emergence, 1,000 g/ha, evaluated after 13 days (100=total damage; 0=no damage), read-out: Percentage damage caused to weed species, AMARE): 100%; pest or weed control at 1000 g/ha ([11]; post-emergence, 1,000 g/ha, evaluated after 13 days (100=total damage; 0=no damage), read-out: Percentage damage caused to weed species, IPOHE): 100%; pest or weed control at 1000 g/ha ([12]; post-emergence, 1,000 g/ha, evaluated after 13 days (100=total damage; 0=no damage), read-out: Percentage damage caused to weed species, ECHCG): 70% |
| 85 to 86 °C | C=Cc1c(NCc2ccco2)nc(C2CC2)nc1C(=O)OC [Compound 31-125, 2-cyclopropyl-5-ethenyl-4-(furan-2-ylmethylamino)-6-methoxycarbonylpyrimidine] | 20% | 20% | 80% | 90% | 100% | 20% | 10% | 10% | 80% | 90% | 50% | 0% |  |
| 126 to 128 °C | NC(=O)c1nc(C2CC2)nc(NCc2ccco2)c1Cl [Compound 201-125, 6-aminocarbonyl-5-chloro-2-cyclopropyl-4-(furan-2-ylmethylamino)-pyrimidine] | 20% | 0% | 70% | 70% | 40% | 0% | 20% | 50% | 90% | 90% | 70% | 20% |  |

Continued, compound first:

| SMILES | melting point | pest or weed control at 1000 g/ha [1, 13] | pest or weed control at 1000 g/ha (Setaria faberi (SETFA) [2]; [14]) | pest or weed control at 1000 g/ha (Solanum nigrum (SOLNI) [3]; [15]) | pest or weed control at 1000 g/ha [4, 16] | pest or weed control at 1000 g/ha [5, 17] | pest or weed control at 1000 g/ha [6, 18] | pest or weed control at 1000 g/ha [7, 19] | pest or weed control at 1000 g/ha (Setaria faberi (SETFA) [8]; [20]) | pest or weed control at 1000 g/ha (Solanum nigrum (SOLNI) [9]; [21]) | pest or weed control at 1000 g/ha [10, 22] | pest or weed control at 1000 g/ha [11, 23] | pest or weed control at 1000 g/ha [12, 24] | also measured |
| --- | --- | --- | --- | --- | --- | --- | --- | --- | --- | --- | --- | --- | --- | --- |
| COC(=O)c1nc(-c2ccc(Cl)cc2)nc(NCc2ccco2)c1Cl [Compound 40-125, 5-chloro-2-(4-chlorophenyl)-4-(furan-2-ylmethylamino)-6-methoxycarbonylpyrimidine] | 132 to 134 °C | 40% | 40% | 80% | 100% | 20% | 50% | 50% | 90% | 90% | 100% | 90% | 70% |  |
| COC(=O)c1nc(Cl)nc(NCc2ccco2)c1Cl [Compound 207-48, 2,5-dichloro-4-(furan-2-ylmethylamino)-6-methoxy carbonylpyrimidine] | 110 to 112 °C | 20% | 20% | 40% | 30% | 40% | 10% | 10% | 10% | 60% | 30% | 30% | 10% |  |
